Reference: paper PMC7811125, “Red-shifted click beetle luciferase mutant expands the multicolor bioluminescent palette for deep tissue imaging” (iScience, 2020)
Structures can show the parent of a compound that is named as a salt.

Target: T1, Akaluc (Photinus pyralis, UniProt P08659)
T1 construct: Akaluc, multiply mutated firefly luciferase; stably expressed in HEK cells
Experiment: live-cell bioluminescence imaging
Format: cell-based
Settings: HEK cells expressing Akaluc; 0.1 mM substrate; 660 nm filter

T1 sequence (P08659 whole entry): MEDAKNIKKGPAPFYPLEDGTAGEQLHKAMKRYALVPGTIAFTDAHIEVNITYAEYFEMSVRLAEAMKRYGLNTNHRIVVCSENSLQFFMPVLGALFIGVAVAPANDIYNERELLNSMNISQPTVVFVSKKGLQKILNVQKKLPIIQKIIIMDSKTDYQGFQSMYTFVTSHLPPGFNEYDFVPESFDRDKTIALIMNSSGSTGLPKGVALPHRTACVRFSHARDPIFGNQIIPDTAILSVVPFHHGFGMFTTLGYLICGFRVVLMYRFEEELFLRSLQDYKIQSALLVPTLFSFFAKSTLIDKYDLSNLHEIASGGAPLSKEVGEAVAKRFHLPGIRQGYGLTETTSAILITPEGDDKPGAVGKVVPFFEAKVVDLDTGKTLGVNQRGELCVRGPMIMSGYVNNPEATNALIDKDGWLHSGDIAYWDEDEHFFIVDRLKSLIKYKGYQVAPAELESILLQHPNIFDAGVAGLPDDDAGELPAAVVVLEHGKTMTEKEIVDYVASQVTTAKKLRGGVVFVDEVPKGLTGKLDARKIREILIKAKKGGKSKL

Structure (SMILES): CN(C)c1ccc(/C=C/C=C/C2=N[C@@H](C(=O)O)CS2)cc1 [AkaLumine-HCl]
- live-cell bioluminescence imaging: Akaluc yielded the brightest photon emission with AkaLumine-HCl
